In patent publication US20200216441A1, “PESTICIDALLY ACTIVE HETEROCYCLIC DERIVATIVES WITH SULFUR CONTAINING SUBSTITUENTS” (SYNGENTA PARTICIPATIONS AG, priority 2017, published 2020):

Assays:
[1] = test system: Frankliniella occidentalis (Western Flower Thrips); conditions: foliar, 168 h
[2] = test system: Tetranychus urticae (Two-Spotted Spider Mite); conditions: foliar, 192 h
[3] = test system: Diabrotica Balteata (Corn Root Worm); test: Diabrotica balteata (Corn Root Worm); conditions: in Zea mays, 96 h, read-out: effect in at least one of the two categories (mortality or growth inhibition)
[4] = test system: Bemisia tabaci (Cotton White Fly); conditions: in Gossypium hirsutum, foliar, 144 h
[5] = test system: Myzus persicae (Green Peach Aphid); test: whole plant or invertebrate; conditions: foliar, 144 h
[6] = test system: Plutella xylostella (Diamond Back Moth); test: whole plant or invertebrate; assay type: in vivo; conditions: 120 h, application rate of 200 ppm, L2 larvae on treated artificial diet, 5 days after infestation, read-out: effect in at least one of the two categories (mortality or growth inhibition)
[7] = test system: Euschistus heros (Neotropical Brown Stink Bug); test: whole plant or invertebrate; assay type: in vivo; conditions: 120 h, application rate of 200 ppm, N2 nymphs on sprayed soybean leaves, 5 days after infestation, read-out: effect in at least one of the two categories (mortality or growth inhibition)
[8] = test system: Spodoptera littoralis (Egyptian Cotton Leaf Worm); test: whole plant or invertebrate; conditions: in Gossypium barbadense, foliar, 72 h, read-out: control (mortality, anti-feeding effect, growth inhibition)
[9] = test system: Spodoptera littoralis (Egyptian Cotton Leaf Worm); test: Spodoptera littoralis (Egyptian Cotton Leaf Worm), uptake by lettuce roots from agar; assay type: in vivo; conditions: 144 h, test rate of 12.5 ppm, compound in agar absorbed by lettuce roots, 6 days after infestation, read-out: effect in at least one of the three categories (mortality, anti-feeding, or growth inhibition)
From the text: Example B10: Spodoptera littoralis (Egyptian Cotton Leaf Worm)
Test compounds were applied by pipette from 10′000 ppm DMSO stock solutions into 24-well plates and mixed with agar. Lettuce seeds were placed onto the agar and the multi well plate was closed by another plate which contained also agar. After 7 days the compound was absorbed by the roots and the lettuce grew into the lid plate. The lettuce leaves were then cut off into the lid plate. Spodoptera eggs were pipetted through a plastic stencil onto a humid gel blotting paper and the lid plate was closed with it.

[10] = test system: Myzus persicae (Green Peach Aphid); test: whole plant or invertebrate; assay type: in vivo; conditions: 144 h, test rate of 24 ppm, systemic, roots of infested pea seedlings in test solution, 6 days
[11] = test system: Myzus persicae (Green Peach Aphid); test: Myzus persicae (Green Peach Aphid). Intrinsic Activity; conditions: 120 h

CCS(=O)(=O)c1cc(OC(C)(C)C#N)cnc1-c1nc2cc(C(F)(F)F)ncc2n1C [Compound P18, 2-[[5-ethylsulfonyl-6-[3-methyl-6-(trifluoromethyl)imidazo[4,5-c]pyridin-2-yl]-3-pyridyl]oxy]-2-methyl-propanenitrile]
≥ 80%: mortality at 200 ppm [1] | mortality at 200 ppm [2] | mortality at 200 ppm [3] | mortality at 200 ppm [4] | mortality at 200 ppm [5] | percent effect (mortality or growth inhibition) at 200 ppm [6] | percent effect (mortality or growth inhibition) at 200 ppm [7] | mortality at 200 ppm [8] | percent effect (mortality, anti-feeding or growth inhibition) at 12.5 ppm [9] | mortality at 24 ppm [10]

CCSc1cc(OC(C)(C)C#N)cnc1-c1nc2cc(C(F)(F)F)ncc2n1C [Compound P19, 2-[[5-ethylsulfanyl-6-[3-methyl-6-(trifluoromethyl)imidazo[4,5-c]pyridin-2-yl]-3-pyridyl]oxy]-2-methyl-propanenitrile]
≥ 80%: mortality at 200 ppm [2] | mortality at 200 ppm [3] | mortality at 200 ppm [4] | mortality at 200 ppm [5] | mortality at 12 ppm [11] | percent effect (mortality or growth inhibition) at 200 ppm [6] | percent effect (mortality or growth inhibition) at 200 ppm [7] | mortality at 200 ppm [8]

CCS(=O)(=O)c1cc(OCC2CC2)cnc1-c1nc2cc(C(F)(F)F)ncc2n1C [Compound P24, 2-[5-(cyclopropylmethoxy)-3-ethylsulfonyl-2-pyridyl]-3-methyl-6-(trifluoromethyl)imidazo[4,5-c]pyridine]
≥ 80%: mortality at 200 ppm [3] | mortality at 200 ppm [5] | percent effect (mortality or growth inhibition) at 200 ppm [6] | percent effect (mortality or growth inhibition) at 200 ppm [7] | mortality at 200 ppm [8] | percent effect (mortality, anti-feeding or growth inhibition) at 12.5 ppm [9] | mortality at 24 ppm [10]

CCS(=O)(=O)c1cc(OC(C)C)cnc1-c1nc2cc(C(F)(F)F)ncc2n1C [Compound P28, 2-(3-ethylsulfonyl-5-isopropoxy-2-pyridyl)-3-methyl-6-(trifluoromethyl)imidazo[4,5-c]pyridine]
≥ 80%: mortality at 200 ppm [3] | mortality at 200 ppm [4] | mortality at 200 ppm [5] | percent effect (mortality or growth inhibition) at 200 ppm [6] | percent effect (mortality or growth inhibition) at 200 ppm [7] | mortality at 200 ppm [8] | percent effect (mortality, anti-feeding or growth inhibition) at 12.5 ppm [9] | mortality at 24 ppm [10]

CCS(=O)(=O)c1cc(ON=C(C)C)cnc1-c1nc2cc(C(F)(F)F)ncc2n1C [Compound P97, N-[[5-ethylsulfonyl-6-[3-methyl-6-(trifluoromethyl)imidazo[4,5-c]pyridin-2-yl]-3-pyridyl]oxy]propan-2-imine]
≥ 80%: mortality at 200 ppm [3] | mortality at 200 ppm [4] | mortality at 200 ppm [5] | percent effect (mortality or growth inhibition) at 200 ppm [6] | percent effect (mortality or growth inhibition) at 200 ppm [7] | mortality at 200 ppm [8] | percent effect (mortality, anti-feeding or growth inhibition) at 12.5 ppm [9]

CCS(=O)(=O)c1cc(OC(F)(F)Br)cnc1-c1nc2cc(C(F)(F)F)ncc2n1C [Compound P99, 2-[5-[bromo(difluoro)methoxy]-3-ethylsulfonyl-2-pyridyl]-3-methyl-6-(trifluoromethyl)imidazo[4,5-c]pyridine]
≥ 80%: mortality at 200 ppm [2] | mortality at 200 ppm [3] | percent effect (mortality or growth inhibition) at 200 ppm [6] | percent effect (mortality or growth inhibition) at 200 ppm [7] | mortality at 200 ppm [8] | percent effect (mortality, anti-feeding or growth inhibition) at 12.5 ppm [9]

CCS(=O)(=O)c1cc(OC(C)(C)C#N)ccc1-c1nc2cc(C(F)(F)F)ncc2n1C [Compound P103, 2-[3-ethylsulfonyl-4-[3-methyl-6-(trifluoromethyl)imidazo[4,5-c]pyridin-2-yl]phenoxy]-2-methyl-propanenitrile]
≥ 80%: mortality at 200 ppm [1] | mortality at 200 ppm [2] | mortality at 200 ppm [3] | mortality at 200 ppm [4] | mortality at 200 ppm [5] | percent effect (mortality or growth inhibition) at 200 ppm [6] | percent effect (mortality or growth inhibition) at 200 ppm [7] | mortality at 200 ppm [8] | mortality at 24 ppm [10]
